Measured values from ChEMBL document CHEMBL3217615, “Novel 3,5-bis(arylidiene)-4-piperidone based monocarbonyl analogs of curcumin: anticancer activity evaluation and mode of action study” (2014).

What was measured:
Assay type in all cases: functional
[1] = test system: COLO 205; test: Induction of apoptosis in human COLO205 cells assessed as viable cells level at 10 uM after 24 hrs by Annexin V/propidium iodide staining-based fluorescence microscopy
[2] = test system: SK-MEL-2; test: Growth inhibition of human SK-MEL-2 cells after 48 hrs by sulforhodamine B assay; conditions: SK-MEL-2, 48 h; for CC50: read-out: LC50 (the source's name)
[3] = test system: COLO 205; test: Induction of apoptosis in human COLO205 cells assessed as DNA fragmentation at 10 uM
[4] = test system: U-251; test: Growth inhibition of human U251 cells assessed as cell growth at 10^-6 M after 48 hrs by sulforhodamine B assay; conditions: U-251, 48 h, read-out: Activity
[5] = test system: SW-620; test: Growth inhibition of human SW620 cells assessed as cell growth at 10^-6 M after 48 hrs by sulforhodamine B assay; conditions: SW-620, 48 h, read-out: Activity
[6] = test system: HT-29; test: Growth inhibition of human HT-29 cells assessed as cell growth at 10^-6 M after 48 hrs by sulforhodamine B assay; conditions: HT-29, 48 h, read-out: Activity
[7] = Growth inhibition of human HCT15 cells assessed as cell growth at 10^-6 M after 48 hrs by sulforhodamine B assay; conditions: HCT-15, 48 h, read-out: Activity
[8] = Growth inhibition of human HOP92 cells assessed as cell growth at 10^-6 M after 48 hrs by sulforhodamine B assay; conditions: HOP-92, 48 h, read-out: Activity
[9] = test system: ACHN; test: Growth inhibition of human ACHN cells assessed as cell growth at 10^-7 M after 48 hrs by sulforhodamine B assay; conditions: read-out: Activity
[10] = test system: SK-OV-3; test: Growth inhibition of human SKOV3 cells assessed as cell growth at 10^-7 M after 48 hrs by sulforhodamine B assay; conditions: SK-OV-3, 48 h, read-out: Activity
[11] = test system: U-251; test: Growth inhibition of human U251 cells assessed as cell growth at 10^-5 M after 48 hrs by sulforhodamine B assay; conditions: U-251, 48 h, read-out: Activity
[12] = test system: A498; test: Growth inhibition of human A498 cells assessed as cell growth at 10^-6 M after 48 hrs by sulforhodamine B assay; conditions: A498, 48 h, read-out: Activity
[13] = Growth inhibition of human NCI-ADR-RES cells assessed as cell growth at 10^-4 M after 48 hrs by sulforhodamine B assay; conditions: read-out: Activity
[14] = test system: U-251; test: Growth inhibition of human U251 cells assessed as cell growth at 10^-4 M after 48 hrs by sulforhodamine B assay; conditions: U-251, 48 h, read-out: Activity
[15] = Growth inhibition of human MOLT4 cells assessed as cell growth at 10^-4 M after 48 hrs by sulforhodamine B assay; conditions: MOLT-4, 48 h, read-out: Activity
[16] = test system: COLO 205; test: Induction of apoptosis in human COLO205 cells at 10 uM after 24 hrs by Annexin V/propidium iodide staining-based fluorescence microscopy
[17] = test system: SK-MEL-5; test: Growth inhibition of human SK-MEL-5 cells assessed as cell growth at 10^-8 M after 48 hrs by sulforhodamine B assay; conditions: SK-MEL-5, 48 h; for growth at 0.01 µM: read-out: Activity; for CC50: read-out: pLC50 (the source's name) (converted); for TGI: read-out: pTGI (converted)
[18] = test system: Malme-3M; test: Growth inhibition of human MALME-3M cells assessed as cell growth at 10^-8 M after 48 hrs by sulforhodamine B assay; conditions: for growth at 0.01 µM: read-out: Activity
[19] = test system: SF-268; test: Growth inhibition of human SF268 cells assessed as cell growth at 10^-8 M after 48 hrs by sulforhodamine B assay; conditions: SF-268, 48 h; for growth at 0.01 µM: read-out: Activity; for TGI: read-out: pTGI (converted)
[20] = Growth inhibition of human MOLT4 cells assessed as cell growth at 10^-8 M after 48 hrs by sulforhodamine B assay; conditions: MOLT-4, 48 h; for growth at 0.01 µM: read-out: Activity; for CC50: read-out: pLC50 (the source's name) (converted); for TGI: read-out: pTGI (converted)
[21] = test system: A498; test: Growth inhibition of human A498 cells after 48 hrs by sulforhodamine B assay; conditions: A498, 48 h; for CC50: read-out: LC50 (the source's name)
[22] = test system: IGROV-1; test: Growth inhibition of human IGROV1 cells after 48 hrs by sulforhodamine B assay; conditions: IGROV-1, 48 h; for CC50: read-out: LC50 (the source's name)
[23] = test system: SK-MEL-28; test: Growth inhibition of human SK-MEL-28 cells after 48 hrs by sulforhodamine B assay; conditions: SK-MEL-28, 48 h; for CC50: read-out: LC50 (the source's name)
[24] = test system: MDA-MB-435; test: Growth inhibition of human MDA-MB-435 cells after 48 hrs by sulforhodamine B assay; conditions: MDA-MB-435, 48 h; for CC50: read-out: LC50 (the source's name)
[25] = Growth inhibition of human HCC2998 cells after 48 hrs by sulforhodamine B assay; conditions: HCC 2998, 48 h; for CC50: read-out: LC50 (the source's name)
[26] = test system: CCRF-CEM; test: Growth inhibition of human CCRF-CEM cells after 48 hrs by sulforhodamine B assay; conditions: for CC50: read-out: LC50 (the source's name)
[27] = Growth inhibition of human UO31 cells assessed as cell growth at 10^-4 M after 48 hrs by sulforhodamine B assay; conditions: UO-31, 48 h, read-out: Activity
[28] = test system: A498; test: Growth inhibition of human A498 cells assessed as cell growth at 10^-4 M after 48 hrs by sulforhodamine B assay; conditions: A498, 48 h, read-out: Activity
[29] = Growth inhibition of human UACC62 cells assessed as cell growth at 10^-7 M after 48 hrs by sulforhodamine B assay; conditions: UACC-62, 48 h, read-out: Activity
[30] = test system: MDA-MB-435; test: Growth inhibition of human MDA-MB-435 cells assessed as cell growth at 10^-7 M after 48 hrs by sulforhodamine B assay; conditions: MDA-MB-435, 48 h, read-out: Activity
[31] = test system: SNB-75; test: Growth inhibition of human SNB75 cells assessed as cell growth at 10^-7 M after 48 hrs by sulforhodamine B assay; conditions: SNB-75, 48 h, read-out: Activity
[32] = test system: HOP-62; test: Growth inhibition of human HOP62 cells assessed as cell growth at 10^-7 M after 48 hrs by sulforhodamine B assay; conditions: HOP-62, 48 h, read-out: Activity
[33] = test system: MDA-MB-231; test: Growth inhibition of human MDA-MB-231 cells assessed as cell growth at 10^-8 M after 48 hrs by sulforhodamine B assay; conditions: MDA-MB-231, 48 h; for growth at 0.01 µM: read-out: Activity; for TGI: read-out: pTGI (converted)
[34] = Growth inhibition of human UO31 cells assessed as cell growth at 10^-8 M after 48 hrs by sulforhodamine B assay; conditions: UO-31, 48 h; for growth at 0.01 µM: read-out: Activity; for TGI: read-out: pTGI (converted)

Cc1ccc(S(=O)(=O)N2C/C(=C\c3cc(F)cc(F)c3)C(=O)/C(=C/c3cc(F)cc(F)c3)C2)cc1
Activity [1]: 24% | GI50 [2]: 1970 nM | TGI [2]: 4660 nM | CC50 [2]: 14800 nM | Activity [3]: 69.5% | growth at 1 µM [4]: -31% | growth at 1 µM [5]: -45% | growth at 1 µM [6]: -22% | growth at 1 µM [7]: 5% | growth at 1 µM [8]: 55% | growth at 0.1 µM [9]: 99% | growth at 0.1 µM [10]: 106% | growth at 10 µM [11]: -97.9% | growth at 1 µM [12]: 91% | growth at 100 µM [13]: -57% | growth at 100 µM [14]: -96% | growth at 100 µM [15]: -27% | Activity [16]: 70% | GI50 [17]: 288 nM | growth at 0.01 µM [17]: 98% | CC50 [17]: 3630 nM | TGI [17]: 1070 nM | GI50 [18]: 275 nM | LC50 [18]: 3800 nM | growth at 0.01 µM [18]: 97% | TGI ([18]; read-out: pTGI (converted)): 741 nM | GI50 [19]: 427 nM | LC50 [19]: 14500 nM | growth at 0.01 µM [19]: 98% | TGI [19]: 2140 nM | GI50 [20]: 302 nM | growth at 0.01 µM [20]: 100% | CC50 [20]: > 100000 nM | TGI [20]: 2090 nM | GI50 [21]: 1880 nM | TGI [21]: 4050 nM | CC50 [21]: 8760 nM | GI50 [22]: 436 nM | TGI [22]: 1550 nM | CC50 [22]: 5170 nM | GI50 [23]: 473 nM | TGI [23]: 1790 nM | CC50 [23]: 4820 nM | GI50 [24]: 241 nM | TGI [24]: 685 nM | CC50 [24]: 3630 nM | GI50 [25]: 602 nM | TGI [25]: 1910 nM | CC50 [25]: 4850 nM | GI50 [26]: 74.8 nM | TGI [26]: 951 nM | CC50 [26]: > 100000 nM | growth at 100 µM [27]: -95% | growth at 100 µM [28]: -86% | growth at 0.1 µM [29]: 93% | growth at 0.1 µM [30]: 92% | growth at 0.1 µM [31]: 90% | growth at 0.1 µM [32]: 110% | GI50 [33]: 269 nM | LC50 [33]: 8510 nM | growth at 0.01 µM [33]: 98% | TGI [33]: 776 nM | GI50 [34]: 1100 nM | LC50 [34]: 5130 nM | growth at 0.01 µM [34]: 91% | TGI [34]: 2340 nM

O=C1/C(=C/c2ccc(Cl)cc2Cl)CN(S(=O)(=O)c2ccccc2)C/C1=C\c1ccc(Cl)cc1Cl
Activity [1]: 29% | GI50 [2]: 6010 nM | TGI [2]: > 100000 nM | CC50 [2]: > 100000 nM | Activity [3]: 45% | growth at 1 µM [4]: -64% | growth at 1 µM [5]: 4% | growth at 1 µM [6]: -8% | growth at 1 µM [7]: -12% | growth at 1 µM [8]: 72% | growth at 0.1 µM [9]: 96% | growth at 0.1 µM [10]: 102% | growth at 10 µM [11]: -66% | growth at 1 µM [12]: 48% | growth at 100 µM [13]: 21% | growth at 100 µM [14]: -63% | growth at 100 µM [15]: -11% | Activity [16]: 66% | growth at 0.01 µM [17]: 94% | CC50 [17]: > 100000 nM | TGI [17]: > 100000 nM | GI50 [18]: 3240 nM | LC50 [18]: > 100000 nM | growth at 0.01 µM [18]: 118% | GI50 [19]: 447 nM | LC50 [19]: > 100000 nM | growth at 0.01 µM [19]: 99% | TGI [19]: > 100000 nM | GI50 [20]: 589 nM | growth at 0.01 µM [20]: 104% | CC50 [20]: > 100000 nM | TGI [20]: 9120 nM | GI50 [21]: 727 nM | TGI [21]: 4390 nM | CC50 [21]: > 100000 nM | GI50 [22]: 317 nM | TGI [22]: 649 nM | CC50 [22]: > 100000 nM | GI50 [23]: 4440 nM | TGI [23]: > 100000 nM | CC50 [23]: > 100000 nM | GI50 [24]: 985 nM | TGI [24]: 3210 nM | CC50 [24]: > 100000 nM | GI50 [25]: 383 nM | TGI [25]: 1360 nM | CC50 [25]: 4540 nM | GI50 [26]: 286 nM | TGI [26]: 994 nM | CC50 [26]: > 100000 nM | growth at 100 µM [27]: -60% | growth at 100 µM [28]: -8% | growth at 0.1 µM [29]: 95% | growth at 0.1 µM [30]: 88% | growth at 0.1 µM [31]: 71% | growth at 0.1 µM [32]: 113% | GI50 [33]: 468 nM | growth at 0.01 µM [33]: 102% | TGI [33]: 2140 nM | GI50 [34]: 234 nM | LC50 [34]: 4790 nM | growth at 0.01 µM [34]: 88% | TGI [34]: 646 nM
